In paper PMC7794397, “Curbing gastrointestinal infections by defensin fragment modifications without harming commensal microbiota” (Communications Biology, 2021):
In brackets after ≈: the same amount, converted by molar mass. Where two headings read alike, the source gives them in different places. Residues, ends and D or L forms follow the SMILES beside them. *: point of attachment. Palmitoyl = CCCCCCCCCCCCCCCC(=O)*; AEEA = NCCOCCOCC(=O)O

How the values were obtained:
[1] = system: A. baumannii DSM30007 4-MRGN
Description: (§1) Bactericidal activity was assessed by broth microdilution assay. Log-phase bacteria were collected by centrifugation (2500 rpm, 10 min, 4 °C), washed twice with 10 mM sodium phosphate buffer containing 1% (w/v) TSB and the optical density at 600 nm was adjusted to 0.1. Approximately 5 × 10^5 CFU/ml bacteria were incubated with serial peptide concentrations (1.17–150 µM) in a final volume of 100 µl in 10 mM sodium phosphate buffer containing 1% (w/v) TSB for 2 h at 37 °C. After incubation, 100 µl of 6% TSB (w/v) were added and absorbance was measured at 600 nm (Tecan, Switzerland) and monitored for 18 h. Afterward, 100 µl per well were plated on LB agar to determine the numbers of viable bacteria microbiologically. Bactericidal activity is expressed as the LC99.9, the lowest concentration that killed ≥99.9 % of bacteria.

E. coli 6940 3-MRGN = conditions: 2 h
Description: as §1

E. faecium DSM2918 VRE = conditions: DSM2918, 2 h
Description: as §1

[2] = system: P. aeruginosa DSM1117 4-MRGN; conditions: DSM1117, 2 h
Description: as §1

S. aureus DSM20213 MRSA = conditions: DSM20213, 2 h
Description: as §1

S. aureus ATCC 25923 = format: cell-based; conditions: for Fold change in MIC: relative to MIC of first passage, Mean
Description: (§2) Development of resistance to the peptides was assessed with S. aureus and S. Typhimurium. […] Bacteria were cultured overnight at 37 °C at 150 rpm in TSB. Bacteria were washed twice with 10 mM sodium phosphate buffer containing 1% (w/v) TSB. […] After incubation, 100 µl of 6% TSB (w/v) was added and plates incubated in a humidified atmosphere for 21 h at 37 °C and 150 rpm.
(§3) The MIC, the lowest concentration of peptide/antibiotic that caused a lack of visible bacterial growth, was determined for each bacterial species. […] This was repeated for 25 passages.

S. Typhimurium DSM554 = conditions: for Fold change in MIC: relative to MIC of first passage, Mean
Description: as §2, §3

S. aureus NCTC8325 [3] = assay: Bacterial pore formation (SYTO9/propidium iodide); format: cell-based; conditions: 37.5 µM Pam-3 (4x MIC), 10 min; Syto9 and propidium iodide
Description: Pore formation was monitored using the Live/Dead BacLight bacterial viability kit (Molecular Probes)[60]. […] Samples were taken after 10 min of peptide treatment, then 0.2 µl of a 1:1 mixture of SYTO9 and propidium iodide (PI) was added and further incubated for 15 min at RT in the dark. […] Images were acquired with an Orca Flash 4.0 V2 camera (Hamamatsu), C Plan-Apo 63x/1.4 Oil DIC and alpha Plan-Apochromat 100x/1.46 Oil Ph3 objectives (Zeiss) and processed using the Zen software package (Zeiss).

P. aeruginosa PAO1 = format: cell-based
Description: (§4) After incubation at 37 °C and 150 rpm for 1–120 min, a sample of 50 µl was taken from the suspension and added to 50 µl of a 0.05% (v/v) sodium polyanethol sulfonate (Sigma-Aldrich) solution, which neutralizes remaining peptide activity, and plated on LB agar to determine the number of viable bacteria.

S. aureus ATCC25923 = format: cell-based
Description: as §4

S. aureus NCTC8325 [4] = assay: Transmission and scanning electron microscopy; format: cell-based; conditions: 37.5 µM Pam-3 (4x MIC), 30 min
Description: As a control, bacteria were exposed to 0.01% acetic acid. Afterward bacteria were fixed in Karnovsky’s reagent.
For transmission electron microscopy (TEM), bacteria were high-pressure frozen (HPF Compact 03, Engineering Office M. Wohlwend GmbH) in capillaries, freeze-substituted (AFS2, Leica Microsystems) with 2% OsO4 and 0.4% uranyl acetate in acetone as substitution medium and embedded in EPON. Ultrathin sections were stained with uranyl acetate and lead citrate and analyzed with a Tecnai Spirit (Thermo Fisher Scientific) operated at 120 kV.
For scanning electron microscopy (SEM), bacteria were washed in PBS and finally fixed with 1% OsO4 on ice for 1 h. Next, samples were prepared on polylysin-coated coverslips, dehydrated in a graduated series to 100% ethanol and critical point dried (Polaron) with CO2. Finally, samples were sputter-coated with a 3 nm thick layer of platinum (Safematic CCu-010) and examined with a Hitachi Regulus 8230 field emission scanning electron microscope (Hitachi) at an accelerating voltage of 5 kV.

CCCCCCCCCCCCCCCC(=O)NCCOCCOCC(=O)N[C@@H](CCCNC(=N)N)C(=O)NCC(=O)N[C@@H](CCCCN)C(=O)N[C@@H](C)C(=O)N[C@@H](CCCCN)C(=O)N[C@@H](CS)C(=O)N[C@@H](CS)C(=O)N[C@@H](CCCCN)C(=O)O [Pam-3] ({Palmitoyl-AEEA}-RGKAKCCK-OH; C-terminus assumed)
growth inhibition of colistin- and tigecycline-resistant isolate (in words) [1]: inhibited the growth | LC99.9 (E. coli 6940 3-MRGN): 9.38 µM | LC99.9 (E. faecium DSM2918 VRE): 9.38 (4.87-9.38) μM | LC99.9 [2]: 9.38 µM | LC99.9 (S. aureus DSM20213 MRSA): 9.38 (4.87-9.38) μM | Fold change in MIC (S. aureus ATCC 25923; Day (passage) 0): 1.0 | Fold change in MIC (S. aureus ATCC 25923; Day (passage) 1): 0.7 | Fold change in MIC (S. aureus ATCC 25923; Day (passage) 2): 1.0 | Fold change in MIC (S. aureus ATCC 25923; Day (passage) 3): 1.0 | Fold change in MIC (S. aureus ATCC 25923; Day (passage) 4): 1.3 | Fold change in MIC (S. aureus ATCC 25923; Day (passage) 5): 1.2 | Fold change in MIC (S. aureus ATCC 25923; Day (passage) 6): 0.8 | Fold change in MIC (S. aureus ATCC 25923; Day (passage) 7): 0.7 | Fold change in MIC (S. aureus ATCC 25923; Day (passage) 8): 0.8 | Fold change in MIC (S. aureus ATCC 25923; Day (passage) 9): 1.0 | Fold change in MIC (S. aureus ATCC 25923; Day (passage) 10): 1.3 | Fold change in MIC (S. aureus ATCC 25923; Day (passage) 11): 1.3 | Fold change in MIC (S. aureus ATCC 25923; Day (passage) 12): 1.2 | Fold change in MIC (S. aureus ATCC 25923; Day (passage) 13): 1.2 | Fold change in MIC (S. aureus ATCC 25923; Day (passage) 14): 1.3 | Fold change in MIC (S. aureus ATCC 25923; Day (passage) 15): 1.2 | Fold change in MIC (S. aureus ATCC 25923; Day (passage) 16): 0.7 | Fold change in MIC (S. aureus ATCC 25923; Day (passage) 17): 1.3 | Fold change in MIC (S. aureus ATCC 25923; Day (passage) 18): 0.7 | Fold change in MIC (S. aureus ATCC 25923; Day (passage) 19): 1.8 | Fold change in MIC (S. aureus ATCC 25923; Day (passage) 20): 1.2 | Fold change in MIC (S. aureus ATCC 25923; Day (passage) 21): 1.0 | Fold change in MIC (S. aureus ATCC 25923; Day (passage) 22): 1.3 | Fold change in MIC (S. aureus ATCC 25923; Day (passage) 23): 1.2 | Fold change in MIC (S. aureus ATCC 25923; Day (passage) 24): 1.3 | Fold change in MIC (S. aureus ATCC 25923; Day (passage) 25): 1.2 | increase in MIC (in words) (S. aureus ATCC 25923; sub-inhibitory concentrations for 25 passages): no significant increase | Fold change in MIC (S. Typhimurium DSM554; Day (passage) 0): 1.0 | Fold change in MIC (S. Typhimurium DSM554; Day (passage) 1): 0.7 | Fold change in MIC (S. Typhimurium DSM554; Day (passage) 2): 0.5 | Fold change in MIC (S. Typhimurium DSM554; Day (passage) 3): 0.7 | Fold change in MIC (S. Typhimurium DSM554; Day (passage) 4): 0.7 | Fold change in MIC (S. Typhimurium DSM554; Day (passage) 5): 0.7 | Fold change in MIC (S. Typhimurium DSM554; Day (passage) 6): 0.7 | Fold change in MIC (S. Typhimurium DSM554; Day (passage) 7): 0.8 | Fold change in MIC (S. Typhimurium DSM554; Day (passage) 8): 0.7 | Fold change in MIC (S. Typhimurium DSM554; Day (passage) 9): 0.7 | Fold change in MIC (S. Typhimurium DSM554; Day (passage) 10): 1.3 | Fold change in MIC (S. Typhimurium DSM554; Day (passage) 11): 1.2 | Fold change in MIC (S. Typhimurium DSM554; Day (passage) 12): 0.7 | Fold change in MIC (S. Typhimurium DSM554; Day (passage) 13): 0.8 | Fold change in MIC (S. Typhimurium DSM554; Day (passage) 14): 0.7 | Fold change in MIC (S. Typhimurium DSM554; Day (passage) 15): 0.375 | Fold change in MIC (S. Typhimurium DSM554; Day (passage) 16): 0.7 | Fold change in MIC (S. Typhimurium DSM554; Day (passage) 17): 1.0 | Fold change in MIC (S. Typhimurium DSM554; Day (passage) 18): 0.8 | Fold change in MIC (S. Typhimurium DSM554; Day (passage) 19): 0.7 | Fold change in MIC (S. Typhimurium DSM554; Day (passage) 20): 0.5 | Fold change in MIC (S. Typhimurium DSM554; Day (passage) 21): 0.7 | Fold change in MIC (S. Typhimurium DSM554; Day (passage) 22): 1.0 | Fold change in MIC (S. Typhimurium DSM554; Day (passage) 23): 0.5 | Fold change in MIC (S. Typhimurium DSM554; Day (passage) 24): 0.5 | Fold change in MIC (S. Typhimurium DSM554; Day (passage) 25): 0.5 | emergence of resistant isolates (in words) (S. Typhimurium DSM554; continuous serial passages): no resistant S. Typhimurium isolates emerged | pore formation (in words) (S. aureus NCTC8325 [3]): strong influx of PI | time to eradication to the level of detection (P. aeruginosa PAO1; 9.38 µM Pam-3): 2 min | time to killing of more than 90% of bacteria (P. aeruginosa PAO1; 9.38 µM Pam-3): ≤ 1 min | MIC (P. aeruginosa PAO1; PAO1): 9.38 µM (≈ 12 µg/mL) | time to eradication to the level of detection (S. aureus ATCC25923; 9.38 µM Pam-3): 30 min | time to killing of more than 90% of bacteria (S. aureus ATCC25923; 9.38 µM Pam-3): ≤ 15 min | MIC (S. aureus ATCC25923; ATCC25923): 9.38 µM (≈ 12 µg/mL) | bacterial morphology, TEM (in words) (S. aureus NCTC8325 [4]): strong cell envelope damage with disrupted membranes and pores in most of the cells
